# Test results: patent US20040043462A1, “Chamber for in vivo screening of angiogenesis and tumor growth modulating compounds” (priority 2003, published 2004)
# “Also recorded” adds a separate entry of the source.
# Columns and labels:
# [1] = test system: wound healing response (granulation tissue) in fibrin-containing chambers; test: F-ZC wound healing response with chamber administration of angiostatin; type: in vivo
# Procedure: FIGS. 20A and 20B are photographs showing gross examination of fibrin-containing chambers of the present invention in which angiostatin was administered in laboratory animals in accordance with techniques described herein above for Laboratory Examples 1-9. […] Fibrin is inherently pale yellow in color and lack of blood vessels in angiostatin treated chambers results in the paler appearance of the chambers.
# FIGS. 20C and 20D are photomicrographs showing depth (represented by line with arrowheads at each end) of granulation tissue developed inside fibrin-containing chambers of the present invention. Depth granulation was used as a measure for the healing response.
# Scale=depth of granulation tissue (×10 microns).
# [2] = test system: tumor cells embedded in fibrin gel (T-ZC); test: Tumor cell-containing chambers (T-ZC) implanted in animals, systemic SUGEN 5416 treatment; type: in vivo
# Procedure: A tumor cell chamber, or tumor Z-chamber (T-ZC) is prepared by adding tumor cells to the fibrinogen solution before adding the solution to the chamber. The tumor cells are embedded in fibrin gel. Implantation is accomplished by making two 2 cm long incisions on the backs of the animals, followed by making blunt dissections on both sides to establish a pocket in the subcutaneous space. The chambers are inserted into these pockets. Clips are used to close the incision in rats and sutures are used for mice. A topical antibiotic, such as that sold under the registered trademark NEOSPORIN® by Glaxo-Wellcome, Inc., is applied over the incision. To harvest the chambers, a long incision is made on the backs of the animals. The surrounding fascia is observed and noted. The chambers are pushed from outside the animal and pulled out. Pictures are taken at this stage to observe differences, if any, between tissue within and encompassing the chamber and the surrounding tissue. The mesh and issue agglomerated thereon are cut from the chamber with scalpel (preferably a #11 blade) and then processed in accordance with a desired analysis approach.
# [3] = test system: wound healing response (granulation tissue, neovascularization) in F-ZC; test: Fibrin Z-chamber (F-ZC) wound healing assay, systemic SU5416 treatment; type: in vivo, Fischer 344 rats; conditions: SUGEN 5416 20 mg/kg, control about 45, p=0.0009
# TGF β1 = TGF β1 ELISA on F-ZC tissue lysates; type: in vivo, Fischer 344 rats
# Procedure: (§1) Schedule and Dose of Drug Administration.
# TGF β1 ELISA. Active TGF β1 ELISA was carried out in triplicate using DUOSET® kit (DY240, Genzyme Corporation, Cambridge, Mass.) as described previously (Danielpour, D., J Immunol Methods (1993) 158(1):17-25) with tissue lysates from chamber contents generated as detailed above. Latent form of […] was converted to immunoreactive form to ascertain total […] content. The data is shown as pg per mg of protein in the tissues.
# [4] = test system: wound healing response (granulation tissue, neovascularization) in F-ZC; test: Fibrin Z-chamber (F-ZC) wound healing assay, systemic SU5416 treatment; type: in vivo, Fischer 344 rats; conditions: for residual D-dimer retention: SU5416 vs control (FIG. 16); for body weight loss: SU5416 20 mg/kg, F-ZC implantation, 10-12 days, vs control (FIG. 13)
# Procedure: as §1
# Fibrin Z-Chambers (F-ZC): In accordance with the present invention, F-ZC were employed in a fibrin gel based in vivo assay. In F-ZC, fibrinogen and thrombin are added to a dual porous chamber through a port and chambers are then implanted in the subcutaneous tissue of the rats and harvested at day 12 post-implantation to assess the wound healing response generated due to presence of fibrin. These chambers are constructed from customized PLEXIGLAS® rings with internal diameter of 10 mm and have an access port drilled on the side. The two open surfaces are covered by nylon mesh (pore size 180 microns, # NY8H04700, Millipore, Mass.) glued to the rings. Fibrinogen (# 341578, CalBiochem, La Jolla, Calif.) was prepared in DMEM (# 11995-065, Gibco BRL, Rockville, Md.) at a concentration of 4 mg/ml and was converted to fibrin by addition of thrombin (#605160, CalBiochem, La Jolla, Calif.) inside the chambers.
# Fischer 344 rats were anesthetized, hair removed using the clippers and the surface was surgically prepared. Two small midline skin incisions were made in the dorsal region about 4 cm apart. Fascia was blunt dissected and small pockets were created on both sides along the midline incision. Thus, four F-ZCs were implanted per animal.
# Quantitation of Immunohistochemistry. Microvessel density (MVD) was calculated as described by Weidner (Weidner, N., et al., J Natl Cancer Inst (1992) 84(24):1875-87). Briefly, three hot spots or areas with highest visible blood vessels density (marked by the vessel marker) per sample section were selected and number of blood vessels counted at a high power field (400×). The data was then pooled for the control and treated tissues to arrive at the mean values for each group. Collagen was semi-quantitatively estimated on a scale of 0-4. Zero was described as negligible staining, 1 as weak, 2 as moderate, 3 as strong and 4 as complete staining as observed in dermis.
# D-Dimer Measurements. The MINIQUANT™ D-Dimer (Cat # 1447, Biopool AB of Umea, Sweden) assay was used to measure residual D-Dimer in the chamber content lysates generated as detailed above. […] The measurements were carried out in duplicate. Each measurement is from pooled tissue for the treatment and control groups.
# [5] = Table 1, SU5416 vs control, n = 10
compound,measurement,setting,value
angiostatin,healing response,[1]; 1 μM angiostatin in chamber,reduction in healing response
same,gross appearance of chambers (influx of blood vessels),"[1]; 1 μM angiostatin in chamber vs controls (FIGS. 20A, 20B)",paler in color
same,granulation tissue formation (depth),"[1]; 1 μM angiostatin in chamber vs controls (FIGS. 20C, 20D, 21)",granulation tissue in controls (FIG. 20C) is distinctly more than angiostatin treated chambers; also recorded: inhibited granulation tissue formation
"Cc1cc(C)c(C=C2C(=O)Nc3ccccc32)[nH]1 [SU5416, 3-(2,4-Dimethylpyrrol-5-yl)methylene-2-indolinone]",body weight loss,"[2]; SUGEN 5416 20 mg/kg systemic, T-ZC implantation, vs control animals (FIG. 9), 20 mg/kg",no significant body weight loss; also recorded: no significant body weight lost
same,tumor growth delay,"[2]; SUGEN 5416 20 mg/kg systemic, T-ZC, p<0.0001 (FIG. 10)",significant tumor growth delay
same,increase in tumor volume,"[2]; SUGEN 5416 20 mg/kg systemic, T-ZC, control about 90% (FIG. 10)",40%
same,microvessel density (MVD) change,"[2]; T-ZC, SUGEN 5416 20 mg/kg, p=0.11 (FIG. 11)",did not change
same,MVD per high power (200×) focal (HPF),"[2]; T-ZC, SUGEN 5416 20 mg/kg, control about 15 (FIG. 11)",about 13
same,residual D-dimer retention,"[2]; T-ZC, SUGEN 5416 systemic vs control (FIG. 12)",more residual D-dimer retention
same,average MVD at 200× magnification,[3],about 30
same,reduction in active TGF β1 level,"TGF β1; F-ZC tissue, SU5416 20 mg/kg IP vs controls",90%
same,total TGF β1,"TGF β1; F-ZC tissue, SU5416 treated vs controls",increased
same,Active TGF β1,"TGF β1; Table 1, F-ZC tissue lysates, SU5416, control 1.45 ± 0.1",0.11 ± 0.05 pg per mg of protein
same,Latent TGF β1,"TGF β1; Table 1, F-ZC tissue lysates, SU5416, control 7.72 ± 0.5",11.85 ± 0.8 pg per mg of protein
same,"Difference, Active TGF β1",TGF β1; [5],"93%, n = 10"
same,"Difference, Latent TGF β1",TGF β1; [5],"35%, n = 10"
same,gross appearance of chambers (influx of blood vessels),"[4]; F-ZC at harvest day 12, SU5416 vs controls (FIGS. 17A, 17B)",distinctly paler color; also recorded: paler in color
same,collagen deposition (MT stain),"[4]; F-ZC granulation tissue, SU5416 20 mg/kg IP, p=0.0006, 20 mg/kg",distinctly decreased collagen deposition; also recorded: collagen was decreased
same,reduction in microvessel density vs controls,"[4]; F-ZC, SU5416 20 mg/kg IP, day 12, p=0.0009",10%
same,reduction of granulation tissue (depth) vs controls,"[4]; F-ZC, SU5416 20 mg/kg IP, day 12, p=0.0076",45%
same,granulation tissue formation,"[4]; F-ZC, SU5416 20 mg/kg vs control, listed as SUGEN 5416",inhibited granulation tissue formation
same,"decrease in collagen deposition (semi-quantitative, MT)","[4]; F-ZC, SU5416 treated vs controls",> 70%
same,residual D-dimer retention,[4]; F-ZC,remained elevated
same,residual D-dimer retention,"[4]; F-ZC, listed as SUGEN 5416",increase in residual D-dimer retention
same,neovascularization,"[4]; F-ZC, SUGEN 5416 20 mg/kg vs control",inhibited neovascularization
same,average depth of granulation tissue,"[4]; F-ZC, SUGEN 5416 20 mg/kg, magnification 10×, control about 45 mm, p=0.0076",about 25 mm
same,D-dimer levels in chambers,"[4]; F-ZC, SUGEN 5416, after 10-12 days of implantation, control about 4,000 ng/ml","about 13,000 ng/ml"
same,body weight loss,[4]; 20 mg/kg,maintained their pre-treatment weights
same,body weight loss,[4]; listed as SUGEN 5416,no significant body weight loss
same,D-Dimer,"[4]; Table 1, F-ZC tissue lysates (pooled), SU5416, control 4100 ± 100",185 ± 20 ng/mL
same,Granulation,"[4]; Table 1, F-ZC, SU5416 20 mg/kg IP, day 12, ± standard error of mean, control 466.7 ± 51.9",256.8 ± 42.9
same,Collagen,"[4]; Table 1, F-ZC, SU5416, semi-quantitative scale of 0-4, ± SEM, control 1.75 ± 0.25",0.5 ± 0.18
same,Microvessel,"[4]; Table 1, F-ZC, SU5416, ± SEM, control 28.17 ± 0.42",26.25 ± 0.53
same,"Difference, Microvessel","[4]; Table 1, SU5416 vs control","10%, p = 0.006,"
same,"Difference, D-Dimer",[4]; [5],"96%, n = 10"
same,"Difference, Collagen","[4]; Table 1, SU5416 vs control, p = 0.001","72%, p = 0.001,"
same,"Difference, Granulation","[4]; Table 1, SU5416 vs control, p = 0.006","45%, p = 0.006,"
